Data from patent publication US20230277669A1, “USES OF UROLITHINS” (Amazentis SA, priority 2022, published 2023).

Test system: CD8+ T cells
Assay: In vitro stimulation of CD3+ T cells with aCD3/aCD28 beads in presence of UA
Assay type: cell-based, FVB mice
Details: 48 h, ICG001 with UA
Method: (FIG. 2A) Scheme of CD3+ T-cell activation and analysis for various timepoints. (FIG. 2B) Reduced effector molecule expression on in vitro treated cells (n=3 pooled from three independent experiments). Isolated T-cells were stimulated for 48 h at the presence of UA or DMSO in the indicated doses. Data are mean ± SD, *p < 0.05 by two-sided t-test. (FIG. 2C) Reduced effector molecule expression on in vitro treated cells (n=3 pooled from three independent experiments). Isolated T-cells were stimulated for 48 h at the presence of UA or DMSO in the indicated doses. Data are mean ± SD, *p < 0.05 by two-sided t-test. (FIG. 2D) Quantification of T memory stem cells (TSCM: CD44^-CD62L^+Sca1^hi) after 24 h, 48 h and 96 h post stimulation with aCD3/aCD28 stimulation beads as indicated in (A) (n=4 pooled from four independent experiments). Data are mean ± SD, statistical analysis was performed via two-sided t-test (*p < 0.05; **p < 0.01; n.s. not significant). (FIG. 2E) Mitochondrial membrane potential within naïve CD62L^+CD44^-CD8^+ T cells, with TMRM^lo representing cells with low mitochondrial membrane potential. Cells were stimulated for 48 h as depicted in (A). Data are mean ± SD, n=4; ***p <0.001 by two-sided t-test. Experiment was repeated twice in independent experiments. (FIG. 2F) Representative histogram and quantification of memory marker CD95 expression in CD62L^+CD44^-CD8^+ cells, 48 hours after in vitro stimulation. Data are mean ± SD; n=5; ****p < 0.0001 by two-sided t-test. Data depicts one of two independent experiments. (FIG. 2G) Analysis of TIL of UA-fed mice, treated as depicted in FIG. 1J. Percentage of TSCM within CD8+ (G; n=7), as well as TCF1 (H; n=7) PD1^hi,Tim3^hi and CTLA4hi (I-K, all n=6) in the TIL CD8+ population are shown. Data are mean ± SD, statistical analysis was performed via two-sided t-test (*p < 0.05; **p < 0.01;, ***p <0.001.). Data depicts one of two independent experiments. (FIG. 2H) The same experiment as FIG. 2G with TCF1 (n=7) in the TIL CD8+ population. (FIG. 2I) The same experiment as FIG. 2G with PD1^hi (n=6) in the TIL CD8+ population. (FIG. 2J) The same experiment as FIG. 2G with Tim3^hi (n=6) in the TIL CD8+ population. (FIG. 2K) The same experiment as FIG. 2G with CTLA4hi (n=6) in the TIL CD8+ population. (FIG. 2L) Flow cytometry readout of ex vivo cytokine release of previously isolated TIL upon re-stimulation with PMA/ionomycin. Data are mean ± SD with n=7 per group. Statistical analysis was performed by two-sided t-test (**p < 0.01). One out of two independent experiments are shown. (FIG. 2M) Flow cytometry readout of ex vivo cytokine release of previously isolated TIL upon re-stimulation with PMA/ionomycin. Data are mean ± SD with n=7 per group. Statistical analysis was performed by two-sided t-test (**p < 0.01). One out of two independent experiments are shown.
(FIG. 4A) Scheme of CD3+ T-cell activation and analysis for various timepoints in order to investigate mitophagy induction in vitro. (FIG. 4B) Analysis of mitochondrial membrane potential within CD8+ T cells, with TMRM^lo representing cells with low mitochondrial membrane potential. Analysis was performed six hours after stimulation with aCD/aCD28 stimulation beads at the presence of the indicated treatments. N=4 per group, *p < 0.05 by Mann Whitney U test. One of two independent experiments are shown. (FIG. 4C) Representative flow histogram and quantification of lysosome formation in CD8+ cells six hours after in vitro stimulation. MFI shown relative to DMSO controls, n=4. Data are normalised mean ± SD, statistical analysis by two-sided t-test. One out of two independent experiments are shown. (FIG. 4D) Mitotracker Red staining of in vitro stimulated CD8+ cells after 24 hours of Urolithin A (UA25 n=6; UA50 n=6) or vehicle control treatment (DMSO: n=4). A representative flow histogram depicting identification of Mitotracker^hi cells is shown. […]

## O=C1[C@H](Cc2ccc(O)cc2)N2C(=O)CCN(C(=O)NCc3ccccc3)[C@H]2CN1Cc1cccc2ccccc12 [ICG001, reference compound]
  UA-induced TCF1 expression: abrogated
  UA-induced TSCM formation: abrogated
